Experimental data published in patent US20250230193A1, “CYCLIC COMPOUND HAVING SELECTIVE KRAS INHIBITORY EFFECT ON HRAS AND NRAS” (CHUGAI SEIYAKU KABUSHIKI KAISHA, priority 2022, published 2025).
Where a SMILES comes first, the peptide text is derived from it. Bridges are numbered along the chain shown (N, C = ends). [ ]: non-standard residue; d: D form. hPhe(3-Cl-4-CF3) = N[C@@H](CCc1ccc(C(F)(F)F)c(Cl)c1)C(=O)O; NPrPhe(4-CF3) = CCCN[C@@H](Cc1ccc(C(F)(F)F)cc1)C(=O)O; NMeGly(cPent) = CN[C@H](C(=O)O)C1CCCC1; Pro(4,4-F2) = O=C(O)[C@@H]1CC(F)(F)CN1; Hyp = O=C(O)[C@@H]1C[C@@H](O)CN1; NMeD = CN[C@@H](CC(=O)O)C(=O)O; NMeL = CN[C@@H](CC(C)C)C(=O)O; NMeA = CN[C@@H](C)C(=O)O; Ac5c = NC1(C(=O)O)CCCC1; Aze = O=C(O)[C@@H]1CCN1; Ac4c = NC1(C(=O)O)CCC1; NEtG = CCNCC(=O)O; Sar = CNCC(=O)O

Tests used:
[1] = target: GDP-bound NRAS wild-type protein (Homo sapiens, UniProt P01111); assay: Binding to NRAS by surface plasmon resonance (SPR), Single Cycle Kinetics; conditions: KD ratio NRAS/KRAS, SPR
[2] = target: GDP-bound HRAS wild-type protein (Homo sapiens, UniProt P01112); assay: Binding to HRAS by surface plasmon resonance (SPR), Single Cycle Kinetics; conditions: KD ratio HRAS/KRAS, SPR
Chain of GDP-bound HRAS wild-type protein (P01112 whole entry): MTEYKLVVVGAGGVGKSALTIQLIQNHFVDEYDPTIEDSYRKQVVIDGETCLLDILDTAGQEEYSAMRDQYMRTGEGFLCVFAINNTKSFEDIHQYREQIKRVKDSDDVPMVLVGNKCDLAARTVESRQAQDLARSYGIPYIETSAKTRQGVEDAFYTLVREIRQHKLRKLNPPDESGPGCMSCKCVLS

Chain of GDP-bound NRAS wild-type protein (P01111 whole entry): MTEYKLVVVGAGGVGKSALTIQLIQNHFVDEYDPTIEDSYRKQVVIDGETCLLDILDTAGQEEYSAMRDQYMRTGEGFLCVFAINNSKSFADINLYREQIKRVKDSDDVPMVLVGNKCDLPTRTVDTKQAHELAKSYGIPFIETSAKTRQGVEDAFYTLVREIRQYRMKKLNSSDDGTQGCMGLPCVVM

| SMILES | NRAS/KRAS (ratio of KD value with respect to GDP-bound NRAS wild-type protein to KD value with respect to KRAS) [1] | HRAS/KRAS (ratio of KD value with respect to GDP-bound HRAS wild-type protein to KD value with respect to KRAS) [2] |
| --- | --- | --- |
| CCCN1C(=O)CN(C)C(=O)CN(CC)C(=O)[C@H]([C@@H](C)CC)NC(=O)[C@H](CC(C)C)N(C)C(=O)C[C@@H](C(=O)N(C)C)N(C)C(=O)[C@H](C2CCCC2)N(C)C(=O)C2(CCCC2)NC(=O)[C@@H]2CCCN2C(=O)[C@H](CCc2ccc(C(F)(F)F)c(Cl)c2)NC(=O)CN(C)C(=O)[C@@H]1Cc1ccc(C(F)(F)F)cc1 [PP0423] ([NMeL]I[NEtG][Sar][NPrPhe(4-CF3)][Sar][hPhe(3-Cl-4-CF3)]P[Ac5c][NMeGly(cPent)][NMeD]-NMe2; lactam N-11) | B (a compound having 3 or more and less than 10 is denoted as B) | C (A compound having a KD ratio of 0.1 or more and less than 3 is denoted as C) |
| CCCN1C(=O)CN(C)C(=O)CN(CC)C(=O)[C@H]([C@@H](C)CC)NC(=O)[C@H](CC(C)C)N(C)C(=O)C[C@@H](C(=O)N(C)C)N(C)C(=O)[C@H](C2CCCC2)N(C)C(=O)C2(CCC2)NC(=O)[C@@H]2CCCN2C(=O)[C@H](CCc2ccc(C(F)(F)F)c(Cl)c2)NC(=O)CN(C)C(=O)[C@@H]1Cc1ccc(C(F)(F)F)cc1 [PP0424] ([NMeL]I[NEtG][Sar][NPrPhe(4-CF3)][Sar][hPhe(3-Cl-4-CF3)]P[Ac4c][NMeGly(cPent)][NMeD]-NMe2; lactam N-11) | B (a compound having 3 or more and less than 10 is denoted as B) | C (A compound having a KD ratio of 0.1 or more and less than 3 is denoted as C) |
| CCCN1C(=O)CN(C)C(=O)CN(CC)C(=O)[C@H]([C@@H](C)CC)NC(=O)[C@H](CC(C)C)N(C)C(=O)C[C@@H](C(=O)N(C)C)N(C)C(=O)[C@H](C2CCCC2)N(C)C(=O)C2(CCCC2)NC(=O)[C@@H]2CC(F)(F)CN2C(=O)[C@H](CCc2ccc(C(F)(F)F)c(Cl)c2)NC(=O)CN(C)C(=O)[C@@H]1Cc1ccc(C(F)(F)F)cc1 [PP0425] ([NMeL]I[NEtG][Sar][NPrPhe(4-CF3)][Sar][hPhe(3-Cl-4-CF3)][Pro(4,4-F2)][Ac5c][NMeGly(cPent)][NMeD]-NMe2; lactam N-11) | B (a compound having 3 or more and less than 10 is denoted as B) | C (A compound having a KD ratio of 0.1 or more and less than 3 is denoted as C) |
| CCCN1C(=O)CN(C)C(=O)CN(CC)C(=O)[C@H]([C@@H](C)CC)NC(=O)[C@H](CC(C)C)N(C)C(=O)C[C@@H](C(=O)N(C)C)N(C)C(=O)[C@H](C2CCCC2)N(C)C(=O)C2(CCC2)NC(=O)[C@@H]2CC(F)(F)CN2C(=O)[C@H](CCc2ccc(C(F)(F)F)c(Cl)c2)NC(=O)CN(C)C(=O)[C@@H]1Cc1ccc(C(F)(F)F)cc1 [PP0426] ([NMeL]I[NEtG][Sar][NPrPhe(4-CF3)][Sar][hPhe(3-Cl-4-CF3)][Pro(4,4-F2)][Ac4c][NMeGly(cPent)][NMeD]-NMe2; lactam N-11) | C (A compound having a KD ratio of 0.1 or more and less than 3 is denoted as C) | C (A compound having a KD ratio of 0.1 or more and less than 3 is denoted as C) |
| CCCN1C(=O)CN(C)C(=O)CN(CC)C(=O)[C@H]([C@@H](C)CC)NC(=O)[C@H](CC(C)C)N(C)C(=O)C[C@@H](C(=O)N(C)C)N(C)C(=O)[C@H](C2CCCC2)N(C)C(=O)C2(CCCC2)NC(=O)[C@@H]2C[C@@H](OCC)CN2C(=O)[C@H](CCc2ccc(C(F)(F)F)c(Cl)c2)NC(=O)CN(C)C(=O)[C@@H]1Cc1ccc(C(F)(F)F)cc1 [PP0427] ([NMeL]I[NEtG][Sar][NPrPhe(4-CF3)][Sar][hPhe(3-Cl-4-CF3)][Hyp](Et)[Ac5c][NMeGly(cPent)][NMeD]-NMe2; lactam N-11) | B (a compound having 3 or more and less than 10 is denoted as B) | C (A compound having a KD ratio of 0.1 or more and less than 3 is denoted as C) |
| CCCN1C(=O)CN(C)C(=O)CN(CC)C(=O)[C@H]([C@@H](C)CC)NC(=O)[C@H](CC(C)C)N(C)C(=O)C[C@@H](C(=O)N(C)C)N(C)C(=O)[C@H](C2CCCC2)N(C)C(=O)C2(CCC2)NC(=O)[C@@H]2C[C@@H](OCC)CN2C(=O)[C@H](CCc2ccc(C(F)(F)F)c(Cl)c2)NC(=O)CN(C)C(=O)[C@@H]1Cc1ccc(C(F)(F)F)cc1 [PP0428] ([NMeL]I[NEtG][Sar][NPrPhe(4-CF3)][Sar][hPhe(3-Cl-4-CF3)][Hyp](Et)[Ac4c][NMeGly(cPent)][NMeD]-NMe2; lactam N-11) | B (a compound having 3 or more and less than 10 is denoted as B) | C (A compound having a KD ratio of 0.1 or more and less than 3 is denoted as C) |
| CCCN1C(=O)CN(C)C(=O)[C@@H]2CCN2C(=O)[C@H]([C@@H](C)CC)NC(=O)[C@H](CC(C)C)N(C)C(=O)C[C@@H](C(=O)N(C)C)N(C)C(=O)[C@H](C2CCCC2)N(C)C(=O)C2(CCCC2)NC(=O)[C@@H]2CCCN2C(=O)[C@H](CCc2ccc(C(F)(F)F)c(Cl)c2)NC(=O)CN(C)C(=O)[C@@H]1Cc1ccc(C(F)(F)F)cc1 [PP0429] ([NMeL]I[Aze][Sar][NPrPhe(4-CF3)][Sar][hPhe(3-Cl-4-CF3)]P[Ac5c][NMeGly(cPent)][NMeD]-NMe2; lactam N-11) | B (a compound having 3 or more and less than 10 is denoted as B) | C (A compound having a KD ratio of 0.1 or more and less than 3 is denoted as C) |
| CCCN1C(=O)CN(C)C(=O)[C@@H]2CCN2C(=O)[C@H]([C@@H](C)CC)NC(=O)[C@H](CC(C)C)N(C)C(=O)C[C@@H](C(=O)N(C)C)N(C)C(=O)[C@H](C2CCCC2)N(C)C(=O)C2(CCC2)NC(=O)[C@@H]2CCCN2C(=O)[C@H](CCc2ccc(C(F)(F)F)c(Cl)c2)NC(=O)CN(C)C(=O)[C@@H]1Cc1ccc(C(F)(F)F)cc1 [PP0430] ([NMeL]I[Aze][Sar][NPrPhe(4-CF3)][Sar][hPhe(3-Cl-4-CF3)]P[Ac4c][NMeGly(cPent)][NMeD]-NMe2; lactam N-11) | B (a compound having 3 or more and less than 10 is denoted as B) | B (a compound having 3 or more and less than 10 is denoted as B) |
| CCCN1C(=O)CN(C)C(=O)[C@@H]2CCN2C(=O)[C@H]([C@@H](C)CC)NC(=O)[C@H](CC(C)C)N(C)C(=O)C[C@@H](C(=O)N(C)C)N(C)C(=O)[C@H](C2CCCC2)N(C)C(=O)C2(CCCC2)NC(=O)[C@@H]2CC(F)(F)CN2C(=O)[C@H](CCc2ccc(C(F)(F)F)c(Cl)c2)NC(=O)CN(C)C(=O)[C@@H]1Cc1ccc(C(F)(F)F)cc1 [PP0431] ([NMeL]I[Aze][Sar][NPrPhe(4-CF3)][Sar][hPhe(3-Cl-4-CF3)][Pro(4,4-F2)][Ac5c][NMeGly(cPent)][NMeD]-NMe2; lactam N-11) | B (a compound having 3 or more and less than 10 is denoted as B) | C (A compound having a KD ratio of 0.1 or more and less than 3 is denoted as C) |
| CCCN1C(=O)CN(C)C(=O)[C@@H]2CCN2C(=O)[C@H]([C@@H](C)CC)NC(=O)[C@H](CC(C)C)N(C)C(=O)C[C@@H](C(=O)N(C)C)N(C)C(=O)[C@H](C2CCCC2)N(C)C(=O)C2(CCC2)NC(=O)[C@@H]2CC(F)(F)CN2C(=O)[C@H](CCc2ccc(C(F)(F)F)c(Cl)c2)NC(=O)CN(C)C(=O)[C@@H]1Cc1ccc(C(F)(F)F)cc1 [PP0432] ([NMeL]I[Aze][Sar][NPrPhe(4-CF3)][Sar][hPhe(3-Cl-4-CF3)][Pro(4,4-F2)][Ac4c][NMeGly(cPent)][NMeD]-NMe2; lactam N-11) | B (a compound having 3 or more and less than 10 is denoted as B) | B (a compound having 3 or more and less than 10 is denoted as B) |
| CCCN1C(=O)CN(C)C(=O)[C@@H]2CCN2C(=O)[C@H]([C@@H](C)CC)NC(=O)[C@H](CC(C)C)N(C)C(=O)C[C@@H](C(=O)N(C)C)N(C)C(=O)[C@H](C2CCCC2)N(C)C(=O)C2(CCCC2)NC(=O)[C@@H]2C[C@@H](OCC)CN2C(=O)[C@H](CCc2ccc(C(F)(F)F)c(Cl)c2)NC(=O)CN(C)C(=O)[C@@H]1Cc1ccc(C(F)(F)F)cc1 [PP0433] ([NMeL]I[Aze][Sar][NPrPhe(4-CF3)][Sar][hPhe(3-Cl-4-CF3)][Hyp](Et)[Ac5c][NMeGly(cPent)][NMeD]-NMe2; lactam N-11) | B (a compound having 3 or more and less than 10 is denoted as B) | B (a compound having 3 or more and less than 10 is denoted as B) |
| CCCN1C(=O)[C@@H]2CCN2C(=O)[C@H](C)N(C)C(=O)[C@H]([C@@H](C)CC)NC(=O)[C@H](CC(C)C)N(C)C(=O)C[C@@H](C(=O)N(C)C)N(C)C(=O)[C@H](C2CCCC2)N(C)C(=O)C2(CCC2)NC(=O)[C@@H]2CCCN2C(=O)[C@H](CCc2ccc(C(F)(F)F)c(Cl)c2)NC(=O)CN(C)C(=O)[C@@H]1Cc1ccc(C(F)(F)F)cc1 [PP0435] ([NMeL]I[NMeA][Aze][NPrPhe(4-CF3)][Sar][hPhe(3-Cl-4-CF3)]P[Ac4c][NMeGly(cPent)][NMeD]-NMe2; lactam N-11) | C (A compound having a KD ratio of 0.1 or more and less than 3 is denoted as C) | C (A compound having a KD ratio of 0.1 or more and less than 3 is denoted as C) |
